Source: patent publication US20150094294A1, “COMPOUNDS AND METHODS FOR TREATING MALARIA” (Cellceutix Corporation, priority 2012, published 2015)
In brackets after ≈: the same amount, converted by molar mass.

Experiments:
Type in all cases: cell-based
[1] = system: P. falciparum 3D7 (chloroquine-sensitive); experiment: Anti-malarial activity, P. falciparum 3D7 culture, 72 hour, DNA content by flow cytometry; conditions: synchronized ring-stage parasites
Summary of the method: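 Magnet-synchronized ring-stage parasites in RPMI 1640/Albumax II were plated at 0.5% parasitemia, 4% final hematocrit, with compound added as 2× dilutions (2.5 μM to 20 nM) for 72 h. Fixed, Triton-permeabilized cells were stained with SYTOX Green (5 μM final), and DNA content was measured by flow cytometry to derive IC50.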

HepG2 cells = experiment: Cytotoxicity against HepG2 cells
3T3 cells = experiment: Cytotoxicity against 3T3 cells
[2] = system: P. falciparum DD2 (chloroquine-resistant); experiment: Anti-malarial activity, P. falciparum DD2 culture, 72 hour, DNA content by flow cytometry; conditions: synchronized ring-stage parasites
Description: Numerous compounds were screened in cultures of the malaria parasite P. falciparum 3D7 (chloroquine-sensitive) and DD2 (chloroquine-resistant). The compounds were also screened for toxixcity against 3T3 cells, HepG2 cells, and in a hemolysis assay. In brief, P. falciparum parasites were cultured in RPMI 1640 (Invitrogen) supplemented with Albumax II (Invitrogen). For synchronization, schizont stage parasites were magnet purified using a SuperMACS™ II Cell Separation Unit (Miltenyi Biotech). For IC50 determinations, synchronized ring-stage parasites were plated at 0.5% parasitemia and 8% hematocrit in 96-well plates at a total volume of 50 μL. Serial dilutions of 2× concentration of the respective compound, ranging from 2.5 μM to 20 nM, were added to the wells to bring the total volume up to 100 μL and 4% hematocrit. Compounds were assayed for a 72 hour period, after which the cultures were fixed with a solution of 4% paraformaldehyde and 0.08% glutaraldhyde in PBS. The cells were then permeabilized with 0.25% Triton X-100, and SYTOX Green Nucleic Acid Stain (Invitrogen) in PBS was added to a final concentration of 5 μM. DNA content, as an indicator of parasitemia, was analyzed on an Accuri C6 Flow Cytometer with C-Sampler. IC50 curves were generated using GraphPad Prism (GraphPad Software).

[3] = Cytotoxicity against HepG2 cells; conditions: human, HepG2 cells; read-out: Cytotoxicity HepG2 EC50
[4] = Cytotoxicity against 3T3 cells; conditions: mouse, 3T3 cells; read-out: Cytotoxicity 3T3 EC50
in vitro = experiment: in vitro
[5] = Plasmodium falciparum, 3D7, 72 h

SMILES | IC50 [1] [µM] | IC50 [2] [µM] | IC50 [1, 5] [µM] | EC50 (in vitro) [µg/mL] | IC50 ([2]; Plasmodium falciparum) [µM] | EC50 (HepG2 cells) [µM] | EC50 (3T3 cells) [µM] | EC50 [3] [µM] | EC50 [4] [µM]
CC(C)(C)c1ccc(NC(=O)CCCCNC(=N)N)c(-c2ccc(-c3cc(C(C)(C)C)ccc3NC(=O)CCCCNC(=N)N)cc2)c1 [Compound 141] | 0.625 | 0.709 | – | – | – | 55 | 28 | – | –
NCCN1CCc2ccc(NC(=O)c3cc(C(=O)Nc4ccc5c(c4)CCN(CCN)CC5)ncn3)cc2CC1 [Compound 146] | – | – | 0.308 | 123 (≈ 227 µM) | 0.331 | – | – | 373 | 373
Fc1cc(NC2CCNCC2)cc(Oc2ccc(Oc3cc(F)cc(NC4CCNCC4)c3)cc2)c1 [Compound 164] | – | – | 0.61 | 15 (≈ 30.3 µM) | 0.98 | – | – | 78 | 23
N=C(N)NCCCCC(=O)Nc1ccc(-c2nnc(-c3ccc(NC(=O)CCCCNC(=N)N)cc3)o2)cc1 [Compound 131] | – | – | 0.042 | 212 (≈ 397 µM) | 0.065 | – | – | 356 | 322
N=C(N)NCCCCOc1cc(OCCCCNC(=N)N)c(C(F)(F)F)cc1NC(=O)Nc1ccc(NC(=O)Nc2cc(C(F)(F)F)c(OCCCCNC(=N)N)cc2OCCCCNC(=N)N)cc1 [Compound 167] | – | – | 0.724 | 7 (≈ 7.01 µM) | 0.951 | – | – | 60 | 37
N=C(N)NCCCc1cccc(-c2ccc3c4ccc(-c5cccc(CCCNC(=N)N)c5)cc4n(CCCNC(=N)N)c3c2)c1 [Compound 155] | – | – | 0.272 | 6 (≈ 9.73 µM) | 0.457 | – | – | 100 | 131
CC(C)N1CCc2ccc(NC(=O)c3cc(C(=O)Nc4ccc5c(c4)CCN(C(C)C)CC5)ncn3)cc2CC1 [Compound 147] | – | – | 0.696 | 560 (≈ 1040 µM) | 0.829 | – | – | > 100 | > 100
N=C(N)NCCCc1cc(SCCN)c(NC(=O)c2cc(C(=O)Nc3cc(C(F)(F)F)c(CCCNC(=N)N)cc3SCCN)ncn2)cc1C(F)(F)F [Compound 116] | – | – | 0.706 | 39 (≈ 48.6 µM) | 0.398 | – | – | 95 | 76
CN(C)CCSc1cc(SCCN(C)C)c(C(F)(F)F)cc1NC(=O)c1cc(C(=O)Nc2cc(C(F)(F)F)c(SCCN(C)C)cc2SCCN(C)C)ncn1 [Compound 102] | 0.064 | 0.238 | – | – | – | 49.8 | < 2 | – | –
N=C(N)NCCCCC(=O)Nc1cc(Br)cc(NC(=O)c2cc(C(=O)Nc3cc(Br)cc(NC(=O)CCCCNC(=N)N)c3SCCO)ncn2)c1SCCO [Compound 170] | – | – | 0.569 | 59 (≈ 62.7 µM) | 0.591 | – | – | 165 | 110
N=C(N)NCCCCC(=O)Nc1cc(C(F)(F)F)cc(NC(=O)c2cc(C(=O)Nc3cc(C(F)(F)F)cc(NC(=O)CCCCNC(=N)N)c3SCCC(=O)O)ncn2)c1SCCC(=O)O [Compound 168] | – | – | 0.227 | > 1000 | 0.098 | – | – | > 100 | > 100
NCCSc1ccc(C(F)(F)F)cc1C(=O)Nc1ccc(-c2ccc(NC(=O)c3cc(C(F)(F)F)ccc3SCCN)cc2)cc1 [Compound 174] | – | – | 0.593 | 1 (≈ 1.47 µM) | 0.393 | – | – | < 16 | < 16
NCCCOc1c(-c2cccc(C(F)(F)F)c2)cc(-c2cccc(C(F)(F)F)c2)c(OCCCN)c1-c1cccc(C(F)(F)F)c1 [Compound 145] | – | – | – | 6 (≈ 9.14 µM) | 0.658 | – | – | 28 | 14
COc1ccc(CN)cc1NC(=O)c1cc(C(=O)Nc2cc(CN)ccc2OC)ncn1 [Compound 175] | – | – | 0.423 | > 1000 | 0.564 | – | – | 362 | 302

Second part, led by results:

IC50 [1] [µM] | IC50 [2] [µM] | IC50 [1, 5] [µM] | EC50 (in vitro) [µg/mL] | IC50 ([2]; Plasmodium falciparum) [µM] | SMILES | EC50 (HepG2 cells) [µM] | EC50 (3T3 cells) [µM] | EC50 [3] [µM] | EC50 [4] [µM]
– | – | 0.991 | 364 (≈ 798 µM) | 1.23 | NCc1cc(C(F)(F)F)ccc1Oc1ccc(Oc2ccc(C(F)(F)F)cc2CN)cc1 [Compound 166] | – | – | 71 | 17
0.732 | 0.803 | – | – | – | CC(C)(C)c1cc(N)c(SCCN)c(NC(=O)c2cccc(C(=O)Nc3cc(C(C)(C)C)cc(N)c3SCCN)n2)c1 [Compound 117] | 9 | 5 | – | –
– | – | 0.322 | 299 (≈ 520 µM) | 0.244 | N=C(N)NCCCCC(=O)Nc1ccc(Oc2cccc(Oc3ccc(NC(=O)CCCCNC(=N)N)cc3)c2)cc1 [Compound 157] | – | – | > 100 | > 100
– | – | 0.295 | > 1000 | 0.484 | CC(C)(C)c1cc(NC(=O)CCCCNS(C)(=O)=O)c(SCCNS(C)(=O)=O)c(NC(=O)c2cccc(C(=O)Nc3cc(C(C)(C)C)cc(NC(=O)CCCCNS(C)(=O)=O)c3SCCNS(C)(=O)=O)c2)c1 [Compound 107] | – | – | > 1000 | > 1000
– | – | 0.035 | > 1000 | 0.135 | N=C(N)NCCc1cccc(NC(=O)c2cc(C(=O)Nc3cccc(CCNC(=N)N)c3)ncn2)c1 [Compound 100] | – | – | 830 | 769
– | – | 0.204 | > 1000 | 0.274 | N=C(N)NCCCCC(=O)Nc1ccc(-c2ccc(NC(=O)CCCCNC(=N)N)c(C(F)(F)F)c2)cc1C(F)(F)F [Compound 173] | – | – | > 2000 | > 2000
0.157 | 0.331 | – | – | – | CCN(CC)CCN(CCN)c1c(NC(=O)Nc2cc(C(F)(F)F)cc([N+](=O)[O-])c2N(CCN)CCN(CC)CC)cc(C(F)(F)F)cc1[N+](=O)[O-] [Compound 123] | 433 | 284 | – | –
– | – | 0.655 | 17 (≈ 28.6 µM) | 1.09 | FC(F)(F)c1ccc(CN2CCNCC2)cc1Oc1ccc(Oc2cc(CN3CCNCC3)ccc2C(F)(F)F)cc1 [Compound 158] | – | – | 29 | 14
0.178 | 0.421 | – | – | – | CC(N)C(=O)Nc1ccc(-c2ccc(-c3ccc(NC(=O)C(C)N)cc3)cc2)cc1 (centres unmarked) [Compound 136] | > 1000 | > 1000 | – | –
– | – | 0.672 | 61 (≈ 66.1 µM) | 0.656 | N=C(N)NCCSc1cc(SCCNC(=N)N)c(C(F)(F)F)cc1NC(=O)c1cc(C(=O)Nc2cc(C(F)(F)F)c(SCCNC(=N)N)cc2SCCNC(=N)N)ncn1 [Compound 114] | – | – | 57 | 31
– | – | 0.61 | 65 (≈ 67.5 µM) | 0.431 | N=C(N)N1CCC(Oc2cc(OC3CCN(C(=N)N)C3)c(C(F)(F)F)cc2NC(=O)c2cc(C(=O)Nc3cc(C(F)(F)F)c(O[C@@H]4CCN(C(=N)N)C4)cc3O[C@@H]3CCN(C(=N)N)C3)ncn2)C1 (some centres unmarked) [Compound 111] | – | – | 84 | 32
0.147 | 0.207 | – | – | – | O=C(Nc1cc(C(F)(F)F)c(OC2CCNC2)cc1OC1CCNC1)c1cc(C(=O)Nc2cc(C(F)(F)F)c(OC3CCNC3)cc2OC2CCNC2)ncn1 (centres unmarked) [Compound 103] | 382 | 256 | – | –
– | – | 0.2 | 2 (≈ 2.06 µM) | 0.301 | N=C(N)NCCCCOc1cc(OCCCCNC(=N)N)c(C(F)(F)F)cc1NC(=O)c1cc(C(=O)Nc2cc(C(F)(F)F)c(OCCCCNC(=N)N)cc2OCCCCNC(=N)N)ncn1 [Compound 104] | – | – | 39 | 25
– | – | 0.047 | 583 (≈ 653 µM) | 0.113 | N#Cc1cccc(C(=O)Nc2cc(C(F)(F)F)cc(NC(=O)c3cc(C(=O)Nc4cc(C(F)(F)F)cc(NC(=O)c5cccc(C#N)c5)c4SCCN)ncn3)c2SCCN)c1 [Compound 101] | – | – | 27 | 74.4
– | – | 0.688 | > 1000 | 0.74 | NCCSc1c(N)cc(C(F)(F)F)cc1NC(=O)c1cn(C2CC2)c2cc(N3CCNCC3)c(F)cc2c1=O [Compound 181] | – | – | 154 | 81
– | 0.102 | – | – | – | N=C(N)NCCCOc1cc(OCCCNC(=N)N)c(-c2ccccc2)cc1-c1ccccc1 [Compound 143] | 119 | 74 | – | –
– | – | 0.68 | 35 (≈ 41.7 µM) | 0.664 | N=C(N)NCCSc1cc(SCCN)c(NC(=O)c2cc(C(=O)Nc3cc(C(F)(F)F)c(SCCNC(=N)N)cc3SCCN)ncn2)cc1C(F)(F)F [Compound 115] | – | – | 47 | 26
0.083 | 0.0459 | – | – | – | N=C(N)NCCSc1ccc(NC(=O)Nc2ccc(SCCNC(=N)N)c(C(F)(F)F)c2)cc1C(F)(F)F [Compound 120] | 165 | 65.1 | – | –
– | – | 0.881 | 58 (≈ 67.1 µM) | 0.886 | N=C(N)NCCCCOc1cc(OCCCCNC(=N)N)c(C(F)(F)F)cc1NC(=O)Nc1cc(C(F)(F)F)c(OCCCCNC(=N)N)cc1OCCCCNC(=N)N [Compound 128] | – | – | 232 | 121
